Results on three substances are retold here after patent US7112570B2, “GPE analogs” (Neuren Pharmaceuticals, Ltd., priority 2000, dated 2006).

The test system of data set [1] is hypoxic-ischemic injury, hippocampal CA1/2 neurons. Description: Neuronal survival after hypoxic-ischemic injury, GPE administered peripherally. Type of data set: in vivo. The note with it: rat, GPE intraperitoneally 2 hours after hypoxia, sacrificed 7 days after injury, FIG. 4. The method, then: This experiment involved treating rats with a control vehicle or GPE administered peripherally 2 hours after a focal CNS injury. […] The degree and length of hypoxia, the ambient temperature and humidity were defmed to standardize the degree of damage. The neuronal death is restricted to the side of the carotid ligation and is primarily in the hippocampus, dentate gyrus, striatum and lateral cortex of the ligated hemisphere. There is no neuronal loss in the contralateral hemisphere.
Specifically forty-nine 50–60 day old adult Wistar rats (280–310 g) were prepared under halothane/O2 anaesthesia. The right side carotid artery was ligated. The rats were allowed to recover for 1 hour and were then placed in an incubator with humidity 90±5% and temperature 31±0.5° C. for 1 hour before hypoxia. Oxygen concentration was reduced and maintained at 6±0.2% 02 for 10 minutes. […]
The rats were transcardially perfised with 0.9% saline followed by 4% paraformaldehyde, and the brains were removed and embedded in paraffin. […] Only cells with a morphology like live neurons were counted, while dead neurons or cells with morphology like glia were not included. […]
A coronal section (A-P 4.5 mm) was used for analysis of the hippocampus. All surviving neurons in the hippocampal CA1/2 region of the injured hemisphere were counted. Data were analysed with paired t-test and presented as mean±sem (standard error of the mean).

Data set [2] is described as follows: Tissue distribution / brain accumulation of tritiated GPE after cardiac, iv, ip or icv administration. The note with it: rat.
Protocol: (§1) Tritiated GPE (Gly-[^3H]Pro-Glu, 1.6 ml, specific activity 50–60 Ci/mmol) obtained from Sibtech, Inc., USA was used in these experiments.
(§2) Adult Wistar rats (300 g) were prepared under halothane/O2 anaesthesia. The rats were randomly assigned to one of four groups: tritiated GPE, saline+0.1% BSA, tritiated GPE+non-tritiated GPE or tritiated proline. Rats in the tritiated GPE, tritiated proline and control groups were sacrificed at 30 min, 1 hr or 6 hrs after administration. Rats co-administered with both tritiated and non- tritiated GPE were sacrificed at 10 minutes after administration. For all groups, tissue was homogenized in Soluene® (a tissue solubilizer; Packard Bioscience Company, Meriden Conn.) and counted in a β counter.
(§3) Rats were injected with 10 million counts of tritiated GPE in 500 μl total (made up with 0.1% BSA in saline). Animals were sacrificed at 30 minutes, 1, 3 or 6 hrs. Tissue was homogenized in Soluene® and counted in a β counter.
(§4) Adult Wistar rats (300 g) were prepared under halothane/O2 anaesthesia. A guide cannula was placed on the dura 7.5 mm anterior from stereotaxic zero and 1.5 mm from midline on the right. One million counts of GPE and 600 μl of non-tritiated GPE were injected in 8 μl total volume (made up with 0.1% BSA in saline). Rats were sacrificed 30 minutes after administration. Tissue was homogenized in Soluene® and counted in a β counter.
(§5) Tritiated GPE, tritiated GPE+non-tritiated GPE, tritiated proline (Amersham) or tritiated proline+non-tritiated proline in vehicle (0.1M citrate buffer [pH6], diluted 10 times in 0.1% bovine serum albumin in 0.1M phosphate buffered saline [PBS] [pH7.3]) were then given by different routes of administration to injured and non-injured rats according to the following study design:
(§6) Cardiac administration was performed using a syringe. The syringe needle was placed into the left ventricle and one of the above four solutions was given.
(§7) IV administration was carried out by injecting one of the four solutions into the tail vein.
(§8) IP administration was performed by injecting one of the four solutions into the peritoneal cavity.
(§9) ICV administration was carried out according to the following procedure. The rats were lightly anaesthetized again using 0.15 ml Saffan™ (Pitman-Moore Ltd, NZ). The infusion of one of the four solutions was made into the right lateral ventricle guided by a metal cap fitted over the rat head using a modified technique originally described by Jirikowski (J Neuroscience Methods, 42: 115–118, 1992), in order to ensure correct placement of the infusion needle. One of the four solutions was administered in a single dose.
(§10) The rats were sacrificed using pentobarbital 10, 60 or 360 minutes after administration of either tritiated GPE or tritiated proline. […] Counts/minute/mg were made in the following tissues: kidney, blood, adrenal glands, liver, lung, testicle, heart, muscle, spinal cord and brain. HPLC was used in order to check that the particles counted were either tritiated GPE or tritiated proline.
For data set [3] the following is noted: rat, in vivo.
Protocol: as §1, §2, §3, §4, §5, §6, §7, §8, §9, §10
In data set [4] the test system is ^3H-Me-GPE binding sites in the rat brain. Description: ^3H-Me-GPE binding autoradiography on rat tissue sections. The note with it: excess (10 μM) of competitor. Here is the method:
After tritiation the reaction mixture was diluted in ammonium acetate buffer (0.05M, pH 5.5 with 20% v/v methanol, 10 ml) and purified using Accell CM- and QMA+Sep-Paks (Waters, Milford, Mass., USA) in series. After washing with the ammonium acetate buffer to remove reagents and byproducts (tritiated water and tritiated methanol), the CM- and QMA+cartridges were uncoupled and the ^3H-Me-GPE was eluted from the QMA cartridge with ammonium bicarbonate (0.3M, 6 ml). The eluted material was lyophilized twice to remove the bulk of the ammonium bicarbonate, dissolved in ethanol-water (1:19, 20 μl ) and aliquots stored at −70° C.
The following experimental protocol followed guidelines approved by the University of Auckland Animal Ethics Committee. Adult male Wistar rats were killed by decapitation and tissues immediately removed and stored at −80° C. Coronal sections (16 μm) were cut on a cryostat and mounted on gelatin-coated slides. Normal adult human postmortem brain (n=4) tissue was cut and mounted in a similar manner. […]

Ends that are not written are not given here. 3H = tritium label

Turning to Gly-Pro-Glu [GPE], the “neuronal survival in the hippocampus after an hypoxic-ischemic injury” value in data set [1] is given as “increases neuronal survival”. In data set [2] (ICV administration), the “uptake in the brain of rats with an hypoxic-ischemic brain injury” value is listed as “selectively taken up on the injured side of the brain”. In addition, in data set [2] (cardiac administration, supported by ICV administration), the “displacement when tritiated and non-tritiated GPE were administered together” value is listed as “the only displacement of GPE occurred in the brain”. Moreover, the “ability to pass through the blood-brain-barrier” value in data set [2] (including in the absence of neural insult) is recorded as “pass through the blood-brain-barrier”. Besides, the “amount in the brain compared to the corresponding time-points after iv and cardiac injection” value in data set [2] (ip administration) is listed as “increased”.

On to “Gly-[^3H]Pro-Glu (Gly-Pro(3H)-Glu; UniProt P05019 49-51, looked up, fragment) [tritiated GPE]”, for which, in data set [3], the “amount in the brain relative to the blood” value is listed as “increases over time” and the “time-point at which there was the most tritiated GPE in the brain” value came out at 60 min.

Regarding N-methyl-GPE, in data set [4], the “blockade of ^3H-Me-GPE binding in the CA1-2 region” value is listed as “blocked”.
